Assays:
A549 cells = assay: IL-1β stimulated IL-6 Production in A549 cells; format: cell-based; settings: Homo sapiens, 1 ng/ml rhIL1β, 18 hrs; for activity at 5 µM: 5 μM compound, read-out: IL-6 Production % Control 5 μM; for activity at 50 µM: 50 μM compound, read-out: IL-6 Production % Control 50 μM; for IC50: read-out: IL-6 Production IC
Method: IL-1β stimulated IL-6 Production in A549 cells: The cellular efficacy of compound candidates is determined using the human lung epithelial cell line A549 (ATCC #CCL-185), based upon the methods of Wheeler et al. (2004) J. Nutrition 134, 1039-1044, and Eda et al. (2011) Cell Biol. Int. 35, 355-358. A549 cells produce a number of cytokines (IL6, IL8 and TNFα) in response to stimulation with IL1β. To induce the production of inflammatory mediators, A549 cells are plated at a final concentration of 3×10^5 cells/well of a 96 well flat bottom plate in F12-K medium supplemented with 10% fetal bovine serum, 100 units/ml penicillin and 100 μg/ml streptomycin (Gibco BRL Life Technologies). Cells are treated with or without inhibitors for 3 hrs then stimulated with 1 ng/ml rhIL1β (R & D Systems) for an additional 18 hrs at 37° C. with 5% CO2. The supernatants are removed and stored at −20° C. until they are to be assayed. The levels of inflammatory mediators are determined using commercial MSD cytokine kits (Meso Scale Discovery) as per the manufacturer's instructions. Standard curves are based on 7 steps of 4× serial dilutions, with a wide dynamic range of 10000 pg/ml to 2.4 pg/ml, and the blank in triplicate. Lower limit of detection (LLOD) is calculated at the commonly used 3× the standard deviation of the blank.
Compounds were tested in accordance with the above described assay, yielding the values described below: […]

TAK1-TAB1 = TAK1-TAB1 (Homo sapiens (Human), UniProt O43318); assay: TAK1-TAB1 competitive binding assay (LanthaScreen), without pre-incubation; settings: 10 nM TAK1-TAB1, 100 nM kinase tracer-236, read-out: TAK1-TAB1 Inhibition IC50
Sequence of TAK1-TAB1 (O43318 other isoform, or with tags, fused parts or gaps): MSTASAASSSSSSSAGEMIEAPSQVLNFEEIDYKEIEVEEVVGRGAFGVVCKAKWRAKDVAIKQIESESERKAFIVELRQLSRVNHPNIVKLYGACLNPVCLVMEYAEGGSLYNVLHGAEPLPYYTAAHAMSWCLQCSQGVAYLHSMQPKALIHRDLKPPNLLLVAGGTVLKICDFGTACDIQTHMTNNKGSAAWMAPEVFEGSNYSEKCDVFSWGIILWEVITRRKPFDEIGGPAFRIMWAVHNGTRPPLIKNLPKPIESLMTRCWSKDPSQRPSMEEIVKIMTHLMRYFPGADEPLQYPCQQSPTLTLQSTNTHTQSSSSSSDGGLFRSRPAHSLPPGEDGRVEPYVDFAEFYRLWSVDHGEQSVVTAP
Description: TAK1-TAB1 Binding Inhibitory Potency: The ability of candidate compounds to interact with TAK1-TAB1 is quantitated by a competitive binding assay using the LanthaScreen technology developed by Life Technologies. This assay is based on the binding of a proprietary, Alexa Fluor® 647-labeled, ATP-competitive kinase inhibitor (kinase tracer-236) to the TAK1-TAB1 construct in presence of a europium-conjugated antibody, resulting in a FRET (fluorescence resonance energy transfer) signal. Displacement of the kinase tracer by compound results in a lower emission ratio upon excitation of the europium chelate. Candidate compounds are designed as potential irreversible inhibitors of TAK1-TAB1, capable of ligating to an active site cysteine residue. The time dependent nature of irreversible inhibition is investigated by performing the binding assay with and without a pre-incubation of compound and TAK1-TAB1.
The inhibitory potency of candidate compounds is measured in 20 mM HEPES pH 7.5, 10 mM MgCl2, 0.01% BSA, 0.0005% Tween-20, and 2% DMSO in the presence of 10 nM TAK1-TAB1, 2 nM Eu-anti-his antibody, and 100 nM kinase tracer-236 using a 384-well plate format. Background signal is defined in the absence of TAK1-TAB1 and uninhibited signal is defined in the presence of vehicle (2% DMSO) alone. Compounds were evaluated in an 11 point dose-response ranging from 20 μM to 0.34 nM. The binding assays are performed under two conditions to evaluate time dependence of inhibition. For the pre-incubation assay, TAK1-TAB1 and Eu-anti-his antibody are preincubated with compound or vehicle for two hours prior to the addition of kinase tracer. The non-preincubated assay is run in which TAK1-TAB1 and Eu-anti-his antibody are added to a mixture of compound and kinase tracer. IC50 values of compounds are determined using a 4 parameter logistical fit of emission ratio as a function of the concentration of compound.
Compounds were tested in accordance with the above described assay, without pre-incubation, yielding the values described below: […]

## CC(C)COc1ncnc2[nH]cc(C#N)c12 [Example 1, 4-isobutoxy-7H-pyrrolo[2,3-d]pyrimidine-5-carbonitrile]
A549 cells
  activity at 5 µM: 83%
  activity at 50 µM: 6%
TAK1-TAB1
  IC50: 560 nM

## CC(C)COc1ncnc2[nH]cc(C(=O)CCl)c12 [Example 23, 2-chloro-1-(4-isobutoxy-7H-pyrrolo[2,3-d]pyrimidin-5-yl)ethanone]
A549 cells
  IC50: 12000 nM
  activity at 5 µM: 117%
  activity at 50 µM: 0%
TAK1-TAB1
  IC50: 280 nM

## CC(C)COc1ncnc2[nH]cc(/C=C/C(=O)O)c12 [Example 178, (E)-3-(4-isobutoxy-7H-pyrrolo[2,3-d]pyrimidin-5-yl)acrylic acid]
A549 cells
  activity at 5 µM: 68%
  activity at 50 µM: 1%
TAK1-TAB1
  IC50: 340 nM

## NC(=O)/C=C/c1c[nH]c2ncnc(OCC(F)(F)F)c12 [Example 191, (E)-3-(4-(2,2,2-trifluoroethoxy)-7H-pyrrolo[2,3-d]pyrimidin-5-yl)acrylamide]
A549 cells
  IC50: 150 nM
  activity at 5 µM: 0%
  activity at 50 µM: 0%
TAK1-TAB1
  IC50: 33 nM

## CCC(C)Oc1ncnc2[nH]cc(/C=C/C(N)=O)c12 (centres unmarked) [Example 187, (E)-3-(4-(sec-butoxy)-7H-pyrrolo[2,3-d]pyrimidin-5-yl)acrylamide]
A549 cells
  IC50: 190 nM
  activity at 5 µM: 0%
  activity at 50 µM: 0%
TAK1-TAB1
  IC50: 4.3 nM

## CC(C)COc1ncnc2[nH]cc(/C=C/C(N)=O)c12 [Example 38, (E)-3-(4-isobutoxy-7H-pyrrolo[2,3-d]pyrimidin-5-yl)acrylamide]
A549 cells
  IC50: 85 nM
  activity at 5 µM: 0%
  activity at 50 µM: 0%
TAK1-TAB1
  IC50: 3.1 nM

## COC(=O)/C=C/c1c[nH]c2ncnc(OCC(C)C)c12 [Example 176, (E)-methyl 3-(4-isobutoxy-7H-pyrrolo[2,3-d]pyrimidin-5-yl)acrylate]
A549 cells
  activity at 5 µM: 1%
  activity at 50 µM: 0%
TAK1-TAB1
  IC50: 200 nM

## CC(C)COc1ncnc2[nH]cc(/C=C/C(=O)NC3CC3)c12 [Example 181, (E)-N-cyclopropyl-3-(4-isobutoxy-7H-pyrrolo[2,3-d]pyrimidin-5-yl)acrylamide]
A549 cells
  IC50: 180 nM
  activity at 5 µM: 1%
  activity at 50 µM: 0%
TAK1-TAB1
  IC50: 180 nM
